Reference: patent US20020142436A1, “Human adenylate cyclase and use therefor” (priority 1995, published 2002)
“Also recorded” adds a separate entry of the source. Like-named read-outs stand apart in the source and are kept apart here.

Experiments:
[1] = tested on: HEK293 cells stably expressing AC; assay: cAMP production in HEK293 cell lines stably expressing AC; format: cell-based, human
Protocol: In particular cell lines derived from the human embryonic kidney cell line 293 (HEK293) have been generated and stably express AC. Briefly, the cells were transfected with pcDNA3 containing the full length AC DNA (clone JP 173—see Example 3) and cells were selected on the basis of resistance to G418 antibiotic (0.8 mg/ml) for 4 weeks. Individual clones of resistant cells were expanded and tested for cAMP production in response to CRF and the effects of immunosuppressants were also examined.

[2] = tested on: AtT20 cells; assay: CRF-induced cAMP accumulation in AtT20 cells; format: cell-based, mouse
Protocol: Experiments for cAMP were all carried out in Hanks balanced salt solution containing 2 mM CaCl2 and 1 mM MgSO4 buffered with 25 mM HEPES pH 7.4 and supplemented with 0.25% (w/v) of bovine serum albumin. The cells were preincubated in serum free medium for 1 hour, after which blockers of phosphosdiesterase (isobutylmethylxanthine 0.5 mM (IBMX) and/or rolipram 0.1 mM) along with various other treatments were applied for 30 minutes at 37° C. Subsequently the cells were cooled to 22° C. for 5 minutes in a water bath and agonists were added for 10 minutes. The reaction was stopped by the addition of 0.2 mol/l HCl to achieve a final concentration of 0.1 mol/l (Brooker et al, (1979) Adv. in Cyclic Nucl. Res. Vol. 10, G. Brooker, P. Greengard and G. A. Robinson, Raven Press, New York, 2-34).
In some experiments cells were preincubated for 30 minutes in medium containing 2 mmol/l EGTA and no added Ca^2+, supplemented with 5 μmol/l A23187 and 2.5 μmol/l nifedipine in order to deplete rapidly mobilized cellular stores of Ca^2+. […] The rationale for this pretreatment is that calcineurin reportedly influences L-channel activity (Lai et al, (1993) J. Neurochem. 61:1333-1339; and Armstrong et al, (1987) Proc. Natl. Acad. Sci. U.S.A. 84:2518-2522), whereas the treatment regimen used here would make Ca^2+ entry independent of this regulation.
These compounds were made up in ethanol at 10^−3 mol/l and diluted with the incubation medium to the desired final concentrations. In some cases cells were preincubated with L685,818 the structural analogue of FK506 that binds to FKBP-12 and inhibits prolyl-isomerase activity but is devoid of immunosuppressant activity (Dumont et al, (1992) J. Exp. Med. 176:751-760) for 10 minutes before the addition of FK506 for 30 minutes at 37° C.

[3] = tested on: AtT20 cells; assay: ACTH release by AtT20 cells; format: cell-based, mouse
[4] = tested on: calcineurin; settings: cited from earlier work
[5] = target: FKBP-12 (Homo sapiens, UniProt P62942); settings: cited from earlier work
FKBP-12, sequence (P62942 whole entry, species assumed): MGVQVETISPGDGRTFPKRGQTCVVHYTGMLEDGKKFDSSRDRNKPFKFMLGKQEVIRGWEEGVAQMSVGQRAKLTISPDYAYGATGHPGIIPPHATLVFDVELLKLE

[6] = tested on: HEK293 cells overexpressing human AC9; assay: Ca2+/calcineurin inhibition of cAMP production in HEK293 cells overexpressing human AC9; format: cell-based
Protocol: The complete coding sequence of human AC9 was cloned into the expression vector pcDNA3. This constuct and pcDNA3 (10 μg) were each linearised by PvuI digestion prior to electroporation into HEK293 cells. Stably transfected clones were selected for resistance to G418 (Gibco) at […] in Dulbecco's modified Eagle's medium (DMEM) supplemented with 10% foetal calf serum. A total of 12 clones were expanded and over-expression of human AC9 confirmed in 9 cell lines by immunoblotting using antisera raised against a pentadecapeptide derived from the N-terminus of mouse AC9 (Paterson et al, (1995) Biochem. Biophys. Res. Commun. 214:1000-8). […] Analysis of clone 7 is reported here.
HEK-293 cells display complex intracellular Ca2+ handling mechanisms that may be controlled by cAMP and calcineurin (Lin et al, (1995) Mol. Pharmacol. 47:131-9; Gromada et al, (1995) FEBS Letts. 373:182-6; Querfurth et al, (1998) Biochem J. 334:79-86), and thus complicate the interpretation of the data. Therefore, intracellular stores of Ca^2+ were depleted to reduce the contribution of intracellular Ca^2+ pools to the intracellular free Ca^2+ signal. […] Two different Ca^2+ depletion protocols were used (Antoni et al, (1998) supra). […] The total cAMP content of the cells and the medium was determined after freeze-thawing and acetylation by radioimmunoassay (Antoni et al, (1995) J. Biol. Chem. 270:28055-61).

[7] = tested on: HEK293 cells; assay: CRF-induced and unstimulated cAMP in HEK293 cells without AC (wild type, sham or pcDNA3 vector); format: cell-based, human; settings: FK506 2 μmol/l, L-685,818 100 μmol/l
Protocol: Both expression plasmids (10 μg) were transfected into SV40-transformed monkey embryonic kidney (COS-7) cells grown in DMEM and 10% fetal bovine serum to 70% confluency in 75 cm^2 flasks following the double DEAE-dextran transfection protocol (Ishikawa et al, (1992) Nucl. Acids Res. 20:4367), while only AC cDNA was transfected into adenovirus-transformed human embryonic kidney (HEK293) cells as these express endogenous receptors for CRF (F. A. Antoni, unpublished data). In control transfections pcDNA3 vector DNA replaced the AC expression construct. […]

[8] = tested on: calcineurin; assay: calcineurin activity in AtT20 cells (phosphocasein method); format: biochemical, mouse; settings: 1 μmol/l FK506, phosphocasein
[9] = tested on: HEK293 cells transfected with AC; assay: cAMP in HEK293 cells transiently transfected with AC; format: cell-based, human; settings: L-685,818 100 μmol/l

With `CC[C@@H]1/C=C(\C)[C@@H](O)[C@H](C)C[C@H](OC)[C@H]2O[C@@](O)(C(=O)C(=O)N3CCCC[C@H]3C(=O)O[C@H](/C(C)=C/[C@@H]3CC[C@@H](O)[C@H](OC)C3)[C@H](C)[C@@H](O)CC1=O)[C@H](C)C[C@@H]2OC` [L685,818] the “blockade of the FK506 effect on CRF-induced cAMP production” value [1] was “blocked”, the “cAMP formation, compound given alone” value [2] was “no discernible effect” and the “antagonism of the effect of FK506 on CRF-induced cAMP production” value ([2]; 10 nmol/l CRF) was “antagonized”. For the same compound, the “ACTH secretion, compound given alone” value [3] was “no discernible effect; also recorded: no effect on basal ACTH secretion”, the “antagonism of the effect of FK506 on CRF-induced ACTH release” value ([3]; FK506 0.5 μmol/l) was “prevented” and the blockade of calcineurin [4] was “does not block calcineurin”. The blockade of calcineurin ([4]; listed as L-685,818) was “do not inhibit calcineurin”, the “FKBP-12 prolyl isomerase activity” value [5] was “potent inhibitor” and the “cAMP production in hAC9 expressing cells” value [6] was “had no effect on cAMP production”. The “inhibitory effect of Ca2+ on cAMP production” value ([6]; FK506, cyclosporin A, rapamycin 10 μM, L685,818 50 μM, PDE blockers present) was “failed to block the inhibitory action of Ca^2+ on cAMP production”, the “cAMP levels in sham-transfected or pcDNA3-transfected cells” value [7] was “no effect in sham-transfected or pcDNA3-transfected cells” and the “effect on the inhibition of calcineurin activity by FK506” value [8] was “blocked the inhibitory effect of FK506 on calcineurin-mediated dephosphorylation of phosphocasein”. The “cAMP response to CRF” value ([9]; FK506 2 μmol/l) was “no significant effect on CRF-induced cAMP production; also recorded: no effect on CRF-induced cAMP formation when given alone” and the “blockade of the enhancement of the CRF-induced cAMP response by FK506” value ([9]; 1 nmol/l CRF) was “blocked the enhancement of the response to 1 nmol/l CRF by FK506”.
